Measurements as given in US6603062B1, “Method for producing transgenic plants with modified 5-aminolevulinic acid biosynthesis, method for identifying 5-aminolevulinic acid synthesis effectors” (Aventis CropScience GmbH, priority 1997, dated 2003).

What was measured:
untransformed maize line = assay: Tolerance threshold of the untransformed maize line to the GSAAT inhibitor; format: in vivo; conditions: for wet weight of nontransgenic plants: six days after medium change, means of 10 plants without root and seed kernel remains
Experimental: First, the tolerance threshold of the untransformed maize line over the GSAAT inhibitor 3-amino-2,3-dihydrobenzoic acid was determined. To this end, the maize seeds were surface-sterilized by washing them under sterile conditions first for 1 minute in 70% ethanol, then for 20 minutes in 5% sodium hypochlorite, 0.1% Tween 20 and subsequently six times briefly in sterile water. The seeds were then placed under sterile conditions on Murashige & Skoog medium (micro- and macronutrients, Sigma GmbH #M5524) containing 90 g/l sucrose and 8 g/l agar and grown for six days at room temperature under daylight fluorescent tubes in a 12-hour-light/12-hour-dark photoperiod until the second leaf emerged. At this stage, the plantlets were transferred to fresh medium with various concentrations of 3-amino-2,3-dihydrobenzoic acid.
After the plants had been grown for a further 10 days, the effect of the inhibitor was recorded. […] Six days after the medium was changed, the following wet weights were found for the nontransgenic plants (in each case means of 10 individual plants without root and remains of the seed kernel):
(§1) The tolerance of transgenic lines to 3-amino-2,3-dihydrobenzoic acid is determined in comparison with the nontransgenic original line. To this end, five regenerate plants per line whose size and root system visually corresponds to the above-described seedlings after six days germination are transferred to media without 3-amino-2,3-dihydrobenzoic acid (one plant) and with 100 μM 3-amino-2,3-dihydrobenzoic acid (four plants) and grown on.

[1] = system: transgenic maize lines with the ALAS gene; assay: Tolerance of transgenic maize lines with the ALAS (hemA) gene to the GSAAT inhibitor; format: in vivo; conditions: 100 μM; compared with untreated controls on medium without inhibitor
Experimental: To produce transgenic maize plants which contain an expression cassette for Rhodobacter sphaeroides hemA gene, a transformation was carried out as described in EP-A 0 469 273, with the difference that pALAS3f was employed as the DNA to be transferred. 41 independent maize transformants were obtained. Amongst these lines termed M23T1, M25T1 to M25T13 and M27T1 to M27T27, plants were regenerated as described. The presence of the complete hemA gene was detected in all transgenic plants by means of PCR using the oligodeoxynucleotides ALAS1 and ALAS2 (see Example 1) as PCR primers.
as §1

GSAAT = target: T1, GSAAT (Hordeum vulgare, UniProt P18492); conditions: background, Beale (1990); cited from earlier work
T1 sequence (P18492 35-469): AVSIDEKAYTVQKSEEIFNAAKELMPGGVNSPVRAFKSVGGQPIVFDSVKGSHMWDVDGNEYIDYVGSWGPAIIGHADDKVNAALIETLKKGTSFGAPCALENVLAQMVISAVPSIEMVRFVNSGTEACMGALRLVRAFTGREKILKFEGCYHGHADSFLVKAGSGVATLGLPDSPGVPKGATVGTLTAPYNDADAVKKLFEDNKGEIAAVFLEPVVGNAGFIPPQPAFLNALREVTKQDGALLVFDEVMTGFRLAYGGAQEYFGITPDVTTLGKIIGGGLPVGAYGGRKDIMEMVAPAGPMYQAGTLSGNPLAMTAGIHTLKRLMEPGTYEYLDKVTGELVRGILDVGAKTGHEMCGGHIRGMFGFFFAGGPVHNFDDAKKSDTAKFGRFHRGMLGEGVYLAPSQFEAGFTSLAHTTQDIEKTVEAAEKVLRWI

[2] = target: T2, recombinant Hordeum vulgare GSAAT (Hordeum vulgare, UniProt P18492); assay: GSAAT activity test (photometric detection of derivatized 5-aminolevulinic acid); format: biochemical; conditions: pH 6.5, 20° C., read-out: concentration leading to a 50% reduction in GSAAT activity
T2 construct: The mature Hordeum vulgare GSAAT was produced recombinantly in Escherichia coli; made in house; host or cells: Escherichia coli TG1, expression plasmid pATE19 co-transformed with pGroESL
T2 sequence (P18492 35-469): T1 sequence (P18492 35-469)
Experimental: GSAAT activity was detected by a photometric detection of the derivatized reaction product 5-aminolevulinic acid. The activity test was carried out in a 96-well flat-bottom microtiter plate (F form) made of polystyrene.
It was possible to carry out the desired number of individual measurements in parallel in the wells of the microtiter plate. The following information relates in each case to one well of the microtiter plate (MTP).
At a temperature of 20° C., 100 μl of enzyme solution (25 pkat/ml recombinant Hordeum vulgare GSAAT, 250 mM Bis Tris/HCl pH 6.5) and 10 μl of 25% (v/v) dimethyl sulfoxide in water were introduced into the well. […]
Immediately after the enzymatic reaction had started, the mixture was incubated for 30 minutes at 20° C. […] After the incubation had ended, the absorption of the solution was determined immediately at a wavelength of 540 nm with the aid of a microtiter plate photometer.
To determine the enzymatically formed quantity of 5-aminolevulinic acid, the blank value (see below) was first deducted from the absorption of the mixture to be analyzed. The difference between measured value and blank value was used for calculating, with the aid of a calibration series, the concentration of 5-aminolevulinic acid in the reaction mixture at the time immediately prior to addition of the ethyl acetoacetate. […]

Lemna gibba = assay: Lemna test; format: in vivo; conditions: 20 μM in culture solution
Experimental: The phytotoxic action of GSAAT inhibitors was also determined in vivo by treating Lemna cultures.
To this end, Lemna gibba was cultured in sterile culture solution (0.4 g/l KNO3, 0.8 g/l CaCl2*2H2O, 0.366 g/l MgSO4*7H2O, 0.2 g/l KH2PO4, 2 ml/l solution I (2.23 g/l MnSO44H2O, 83 mg/l Kl, 2.5 mg/l CoCl2*6H2O, 0.86 g/l ZnSO4*7H2O, 2.5 mg/l CuSO4*5H2O, 0.62 g/l H3BO3, 25 mg/l Na2MoO4*2H2O) and 2 ml/l solution II(14.92 g/l Na-EDTA, 10.92 g/l FeSO4*7H2O)). In each case 3 plants were placed under sterile conditions into the a 100 ml Erlenmeyer flask which was filled with 50 ml culture solution containing the GSAAT inhibitor in a concentration of 20 μM. The culture flasks were illuminated at 25° C. with two 36 W daylight fluorescence tubes at a distance of 70 cm (24-hour light photoperiod). Growth and phenotype of the Lemna plants were observed over 7 days and compared with the growth and the phenotype of Lemna plants which had been grown in culture solution without inhibitor under otherwise identical conditions. It was characteristic of the phytotoxic effect of a GSAAT inhibitor that the newly-formed tissues were chlorotic. When light intensities were high, it was also possible for the plant tissue to become necrotic. Compounds with a rapid action frequently led to complete destruction of the plants after only one day, while the more slowly acting compounds first led to growth depression.

[3] = 100 μM, after a further 10 days

SMILES: NC1C=CC=C(C(=O)O)C1 (stereo not shown) [3-amino-2,3-dihydrobenzoic acid]
- wet weight of nontransgenic plants (untransformed maize line; 1 μM in medium): 4.15 g
- wet weight of nontransgenic plants (untransformed maize line; 5 μM in medium): 3.82 g
- wet weight of nontransgenic plants (untransformed maize line; 10 μM in medium): 3.12 g
- wet weight of nontransgenic plants (untransformed maize line; 100 μM in medium): 1.53 g
- biomass production (untransformed maize line; [3]): markedly reduced
- phenotype of newly-formed tissue (untransformed maize line; [3]): marked chlorosis
- phenotype of regenerated plants of the nontransgenic line (untransformed maize line; 100 μM, compared with the untreated control): marked chlorosis and reduced biomass production
- biomass production (untransformed maize line; concentration under 5 μM, after a further 10 days): unaltered within the normal variations
- phenotype of regenerated plants of most transgenic lines [1]: none of the regenerated plants in the presence of 100 μM 3-amino-2,3-dihydrobenzoic acid shows chloroses or reduced growth
- effect on GSAAT (GSAAT): inhibited

SMILES: NNCCCS(=O)(=O)O [compound A, hydrazinopropylsulfonic acid]
- IC50 [2]: 6 µM
- plants that had died (Lemna gibba; after 72 hours): over 60%
- phytotoxic effect on Lemna plants (Lemna gibba; within 48 hours): chloroses and growth depression
